In patent US20100330685A1, “DIAMINORHODAMINE DERIVATIVE” (SEKISUI MEDICAL CO., LTD., priority 2000, published 2010):
Where a name gives a salt, the structure may show the parent alone.

Key:
[1] = tested on: Bovine aorta endothelial cells; assay: Imaging of nitric oxide in cells; format: cell-based
Protocol: Bovine aorta endothelial cells were cultured on an imaging dish. The culture broth was changed to DMEM medium (supplemented with 0.2% DMSO) containing DAR-4M AM (10 μM) prepared in Example 5, and incubated at 37° C. for 30 minutes to load DAR-4M AM on the cells. The cells were washed, and the culture broth was changed again to DMEM medium not containing DAR-4M AM. After incubation at 37° C. for 1 hour, imaging was performed. The cells were examined with a fluorescence microscope equipped with an excitation filter (520 to 550 nm), a dichromic mirror (565 nm), and a barrier filter (580 nm, long pass). The measurement was performed in a warm box kept at 37° C. Imaging interval was set to be 10 seconds, and images captured by a cooled charge-coupled device camera were recorded and analyzed by an image analyzer. The results in the figure are shown with averaged change of relative fluorescence intensity of arbitrary seven cells based on the fluorescence intensity at the time of the start of the measurement. The fluorescence intensity was increased by stimulation with bradykinin (FIG. 3(A)), but the fluorescence intensity was not increased in the presence of a nitric oxide synthetase inhibitor (1 mM L-NAME) (FIG. 3(B)).

Structure (SMILES) | melting point [°C] | uptake into the cells ([1]; 10 μM in DMEM medium, 37° C., 30 minutes) | fluorescence intensity in the presence of a nitric oxide synthetase inhibitor ([1]; 1 mM L-NAME, cells loaded with 10 μM) | fluorescence intensity on stimulation with bradykinin ([1]; cells loaded with 10 μM, 37° C., 30 minutes, average of seven cells) | reaction with nitric oxide in the cells ([1]; DAR-4M produced in the cells from DAR-4M AM)
CNc1ccc(-c2c3ccc(N(C)C)cc3[o+]c3cc(N(C)C)ccc23)c(C(=O)OCOC(C)=O)c1N.[I-] [DAR-4M AM, 3,6-bis(dimethylamino)-9-[2-acetoxymethoxycarbonyl-3-amino-4-(N-methylamino)phenyl]xanthylium iodide] | 177 to 178 | taken into the cells | not increased | increased | –
CNc1ccc(-c2c3ccc(N(C)C)cc3[o+]c3cc(N(C)C)ccc23)c(C(=O)[O-])c1N [DAR-4M, 3,6-bis(dimethylamino)-9-[3-amino-4-(N-methylamino)-2-carboxyphenyl]xanthylium intramolecular salt] | – | – | – | – | specifically reacted with nitric oxide
CCN(CC)c1ccc2c(-c3ccc(NC)c(N)c3C(=O)OCOC(C)=O)c3ccc(N(CC)CC)cc3[o+]c2c1.[I-] [DAR-M AM, 3,6-bis(diethylamino)-9-[2-acetoxymethoxycarbonyl-3-amino-4-(N-methylamino)phenyl]xanthylium iodide] | 147 to 150 | – | – | – | –
